Data taken from patent US9555014B2, “Therapeutic regimens” (Radius Health, Inc., priority 2010, dated 2017).
Structures can show the parent of a compound that is named as a salt.

Test system: postmenopausal women with frequent, moderate to severe vasomotor symptoms (hot flashes)
Assay: Phase 2a study: hot flash frequency, severity and composite score
Format: in vivo, human (postmenopausal women)
Details: for Composite Scores by Week: mean; for Mean Severity Scores by Week / Weekly Mean Frequency of Mild, Moderate and Severe Hot Flash Numbers / Weekly Mean Frequency of Moderate and Severe Hot Flash Numbers: mean (SD)
Text: A phase 2a study was undertaken to assess the effect of (R)-6-(2-(ethyl(4-(2-(ethylamino)ethyl)benzyl)amino)-4-methoxyphenyl)-5,6,7,8-tetrahydronaphthalen-2-ol dihydrochloride (referred to as “drug” in tables below) to alleviate hot flashes in postmenopausal women. The study design and objectives are detailed below.
This is a randomized, placebo-controlled, double-blind, parallel-group, Phase 2, multi-center, dose-finding study to evaluate the effects of (R)-6-(2-(ethyl(4-(2-(ethylamino)ethyl)benzyl)amino)-4-methoxyphenyl)-5,6,7,8-tetrahydronaphthalen-2-ol dihydrochloride in the treatment of vasomotor symptoms in postmenopausal women.
A total of 100 eligible patients will be randomized to receive one of 5 blinded treatment regimens. (R)-6-(2-(ethyl(4-(2-(ethylamino)ethyl)benzyl)amino)-4-methoxyphenyl)-5,6,7,8-tetrahydronaphthalen-2-ol dihydrochloride at doses 0, 10, 25, 50 or 100 mg will be dosed for 28-days.
Patients will document in real time hot flash frequency and severity according to a predetermined scale, in the provided electronic or paper Study Diary. Study Diary entries of hot flash frequency and severity and associated symptoms will be reviewed at each study visit. Serum markers of estrogen effect will be measured at specific study visits while on treatment.
The efficacy endpoints assessed are: • Change in frequency of hot flashes over time • Change in severity of hot flashes over time; • Change in composite score of hot flashes over time (frequency×severity)
(R)-6-(2-(ethyl(4-(2-(ethylamino)ethyl)benzyl)amino)-4-methoxyphenyl)-5,6,7,8-tetrahydronaphthalen-2-ol dihydrochloride was provided by sponsor in capsule form for oral administration. All doses (0, 10, 25, 50 and 100 mg) were provided as identical presentations. Each patient was provided with 2 containers of 28-capsules each at the start of treatment and took one capsule from each container every day for 28-days. Placebo contained the same excipients as active medication, but without (R)-6-(2-(ethyl(4-(2-(ethylamino)ethyl)benzyl)amino)-4-methoxyphenyl)-5,6,7,8-tetrahydronaphthalen-2-ol dihydrochloride. The patients were instructed to take the capsules orally in the fasted state (morning).
Changes in the efficacy endpoints of frequency, severity, and composite score of hot flashes over time; associated hot flash symptoms (palpitations, insomnia, joint aches, and headaches), PD markers of estrogen effect (FSH, LH, and lipid profile), drug levels, and MRS were to be summarized using descriptive statistics. Frequency, severity, and composite score of hot flashes over time were to be analyzed using repeated measures analysis of variance (ANOVA) with factors for treatment (treatment groups), time (study day) and their interaction. A linear trend test for treatment groups (placebo, and 10, 25, 50, 100 mg doses of drug) and for study day as well as any potential interaction between the two was to be included as part of the analyses by including both dose and time as continuous variables in the ANOVA model. Pair-wise comparisons of change from baseline were to be tested between the placebo group and each drug dose group for each timepoint; the mean difference together with a 95% confidence interval of the difference was to be presented for placebo compared with each active treatment group. Nominal p-values at Week 4 were to be presented. In addition, graphical presentations of mean (±standard error of the mean) and percent group responses over time together with repeated measures ANOVA to assess potential trend in responses over time in each dose group were to be presented. For the associated vasomotor symptoms (palpitations, insomnia, joint aches, and headaches collected in the patient diaries), patient and event frequencies were to be summarized by treatment week and treatment group.
Hot flashes were also scored according to their severity with a mild hot flash scored a “1”, a moderate hot flash scored a “2” and a severe hot flash scored a “3”. […]

SMILES: CCNCCc1ccc(CN(CC)c2cc(OC)ccc2[C@@H]2CCc3cc(O)ccc3C2)cc1 [drug, (R)-6-(2-(ethyl(4-(2-(ethylamino)ethyl)benzyl)amino)-4-methoxyphenyl)-5,6,7,8-tetrahydronaphthalen-2-ol dihydrochloride]
- Composite Scores by Week (10 mg daily PO, Week 1, ITT): 73.68
- Mean Severity Scores by Week (10 mg daily PO, Week 1, ITT): 1.99 (0.460)
- Weekly Mean Frequency of Mild, Moderate and Severe Hot Flash Numbers (10 mg daily PO, Week 1, ITT): 36.0 (18.97)
- Weekly Mean Frequency of Moderate and Severe Hot Flash Numbers (10 mg daily PO, Week 1, ITT): 30.4 (18.92)
- Composite Scores by Week (10 mg daily PO, Week 2, ITT): 47.75
- Mean Severity Scores by Week (10 mg daily PO, Week 2, ITT): 1.80 (0.514)
- Weekly Mean Frequency of Mild, Moderate and Severe Hot Flash Numbers (10 mg daily PO, Week 2, ITT): 27.2 (15.16)
- Weekly Mean Frequency of Moderate and Severe Hot Flash Numbers (10 mg daily PO, Week 2, ITT): 18.5 (13.34)
- Composite Scores by Week (10 mg daily PO, Week 3, ITT): 37.15
- Mean Severity Scores by Week (10 mg daily PO, Week 3, ITT): 1.84 (0.570)
- Weekly Mean Frequency of Mild, Moderate and Severe Hot Flash Numbers (10 mg daily PO, Week 3, ITT): 21.2 (12.99)
- Weekly Mean Frequency of Moderate and Severe Hot Flash Numbers (10 mg daily PO, Week 3, ITT): 14.5 (11.92)
- Composite Scores by Week (10 mg daily PO, Week 4, ITT): 34.35
- Mean Severity Scores by Week (10 mg daily PO, Week 4, ITT): 1.86 (0.562)
- Weekly Mean Frequency of Mild, Moderate and Severe Hot Flash Numbers (10 mg daily PO, Week 4, ITT): 19.1 (12.95)
- Weekly Mean Frequency of Moderate and Severe Hot Flash Numbers (10 mg daily PO, Week 4, ITT): 13.4 (11.54)
- reduction in severity of hot flashes compared with other groups (10 mg dose vs placebo and 25, 50, 100 mg, Table 8 / FIG. 3): greatest reduction in severity of hot flashes at all time points
- reduction in moderate and severe hot flashes compared with other groups (10 mg group vs placebo and 25, 50, 100 mg, Table 6 / FIG. 1): greatest reduction in hot flashes at each weekly time point
- reduction in all (mild, moderate and severe) hot flashes compared with other groups (10 mg group vs placebo and 25, 50, 100 mg, Table 7): greatest reduction in hot flashes at each weekly time point
- composite score reduction compared with other groups (10 mg group vs placebo and 25, 50, 100 mg, Table 9 / FIG. 4): greatest composite score reduction at each weekly timepoint
- Weekly Mean Frequency of Mild, Moderate and Severe Hot Flash Numbers (10 mg group, Baseline, ITT): 66.0 (13.89)
- Weekly Mean Frequency of Moderate and Severe Hot Flash Numbers (10 mg group, Baseline, ITT): 63.1 (14.23)
- Mean Severity Scores by Week (10 mg group, Baseline, ITT, mild=1, moderate=2, severe=3): 2.37 (0.347)
- Composite Scores by Week (10 mg group, Baseline, ITT, frequency x severity): 156.45
- Composite Scores by Week (25 mg daily PO, Week 1, ITT): 142.71
- Mean Severity Scores by Week (25 mg daily PO, Week 1, ITT): 2.12 (0.392)
- Weekly Mean Frequency of Mild, Moderate and Severe Hot Flash Numbers (25 mg daily PO, Week 1, ITT): 64.4 (48.88)
- Weekly Mean Frequency of Moderate and Severe Hot Flash Numbers (25 mg daily PO, Week 1, ITT): 57.7 (50.49)
- Composite Scores by Week (25 mg daily PO, Week 2, ITT): 102.82
- Mean Severity Scores by Week (25 mg daily PO, Week 2, ITT): 2.09 (0.447)
- Weekly Mean Frequency of Mild, Moderate and Severe Hot Flash Numbers (25 mg daily PO, Week 2, ITT): 48.0 (48.80)
- Weekly Mean Frequency of Moderate and Severe Hot Flash Numbers (25 mg daily PO, Week 2, ITT): 42.3 (49.73)
- Composite Scores by Week (25 mg daily PO, Week 3, ITT): 102.59
- Mean Severity Scores by Week (25 mg daily PO, Week 3, ITT): 2.14 (0.408)
- Weekly Mean Frequency of Mild, Moderate and Severe Hot Flash Numbers (25 mg daily PO, Week 3, ITT): 46.6 (56.27)
- Weekly Mean Frequency of Moderate and Severe Hot Flash Numbers (25 mg daily PO, Week 3, ITT): 43.3 (57.15)
- Composite Scores by Week (25 mg daily PO, Week 4, ITT): 89.59
- Mean Severity Scores by Week (25 mg daily PO, Week 4, ITT): 2.06 (0.404)
- Weekly Mean Frequency of Mild, Moderate and Severe Hot Flash Numbers (25 mg daily PO, Week 4, ITT): 42.4 (53.18)
- Weekly Mean Frequency of Moderate and Severe Hot Flash Numbers (25 mg daily PO, Week 4, ITT): 37.4 (54.76)
- Weekly Mean Frequency of Mild, Moderate and Severe Hot Flash Numbers (25 mg group, Baseline, ITT): 75.8 (46.46)
- Weekly Mean Frequency of Moderate and Severe Hot Flash Numbers (25 mg group, Baseline, ITT): 65.9 (44.30)
- Mean Severity Scores by Week (25 mg group, Baseline, ITT, mild=1, moderate=2, severe=3): 2.26 (0.348)
- Composite Scores by Week (25 mg group, Baseline, ITT, frequency x severity): 165.47
- Composite Scores by Week (50 mg daily PO, Week 1, ITT): 104.35
- Mean Severity Scores by Week (50 mg daily PO, Week 1, ITT): 1.92 (0.402)
- Weekly Mean Frequency of Mild, Moderate and Severe Hot Flash Numbers (50 mg daily PO, Week 1, ITT): 54.0 (27.15)
- Weekly Mean Frequency of Moderate and Severe Hot Flash Numbers (50 mg daily PO, Week 1, ITT): 41.7 (23.79)
- Composite Scores by Week (50 mg daily PO, Week 2, ITT): 87.78
- Mean Severity Scores by Week (50 mg daily PO, Week 2, ITT): 1.88 (0.535)
- Weekly Mean Frequency of Mild, Moderate and Severe Hot Flash Numbers (50 mg daily PO, Week 2, ITT): 45.8 (25.16)
- Weekly Mean Frequency of Moderate and Severe Hot Flash Numbers (50 mg daily PO, Week 2, ITT): 32.8 (25.52)
- Composite Scores by Week (50 mg daily PO, Week 3, ITT): 77.67
- Mean Severity Scores by Week (50 mg daily PO, Week 3, ITT): 1.86 (0.544)
- Weekly Mean Frequency of Mild, Moderate and Severe Hot Flash Numbers (50 mg daily PO, Week 3, ITT): 40.5 (22.37)
- Weekly Mean Frequency of Moderate and Severe Hot Flash Numbers (50 mg daily PO, Week 3, ITT): 29.6 (25.09)
- Composite Scores by Week (50 mg daily PO, Week 4, ITT): 75.06
- Mean Severity Scores by Week (50 mg daily PO, Week 4, ITT): 1.83 (0.568)
- Weekly Mean Frequency of Mild, Moderate and Severe Hot Flash Numbers (50 mg daily PO, Week 4, ITT): 37.9 (23.45)
- Weekly Mean Frequency of Moderate and Severe Hot Flash Numbers (50 mg daily PO, Week 4, ITT): 29.4 (26.53)
- Weekly Mean Frequency of Mild, Moderate and Severe Hot Flash Numbers (50 mg group, Baseline, ITT): 76.0 (36.96)
- Weekly Mean Frequency of Moderate and Severe Hot Flash Numbers (50 mg group, Baseline, ITT): 71.9 (36.92)
- Mean Severity Scores by Week (50 mg group, Baseline, ITT, mild=1, moderate=2, severe=3): 2.14 (0.313)
- Composite Scores by Week (50 mg group, Baseline, ITT, frequency x severity): 162.19
- Composite Scores by Week (100 mg daily PO, Week 1, ITT): 104.35
- Mean Severity Scores by Week (100 mg daily PO, Week 1, ITT): 2.04 (0.334)
- Weekly Mean Frequency of Mild, Moderate and Severe Hot Flash Numbers (100 mg daily PO, Week 1, ITT): 48.6 (23.32)
- Weekly Mean Frequency of Moderate and Severe Hot Flash Numbers (100 mg daily PO, Week 1, ITT): 41.9 (24.23)
- Composite Scores by Week (100 mg daily PO, Week 2, ITT): 87.18
- Mean Severity Scores by Week (100 mg daily PO, Week 2, ITT): 2.01 (0.406)
- Weekly Mean Frequency of Mild, Moderate and Severe Hot Flash Numbers (100 mg daily PO, Week 2, ITT): 41.6 (27.37)
- Weekly Mean Frequency of Moderate and Severe Hot Flash Numbers (100 mg daily PO, Week 2, ITT): 35.6 (28.06)
- Composite Scores by Week (100 mg daily PO, Week 3, ITT): 59.75
- Mean Severity Scores by Week (100 mg daily PO, Week 3, ITT): 1.88 (0.473)
- Weekly Mean Frequency of Mild, Moderate and Severe Hot Flash Numbers (100 mg daily PO, Week 3, ITT): 29.4 (23.91)
- Weekly Mean Frequency of Moderate and Severe Hot Flash Numbers (100 mg daily PO, Week 3, ITT): 24.5 (24.06)
- Composite Scores by Week (100 mg daily PO, Week 4, ITT): 43.67
- Mean Severity Scores by Week (100 mg daily PO, Week 4, ITT): 1.89 (0.484)
- Weekly Mean Frequency of Mild, Moderate and Severe Hot Flash Numbers (100 mg daily PO, Week 4, ITT): 23.1 (19.45)
- Weekly Mean Frequency of Moderate and Severe Hot Flash Numbers (100 mg daily PO, Week 4, ITT): 18.6 (19.16)
- Weekly Mean Frequency of Mild, Moderate and Severe Hot Flash Numbers (100 mg group, Baseline, ITT): 63.6 (13.23)
- Weekly Mean Frequency of Moderate and Severe Hot Flash Numbers (100 mg group, Baseline, ITT): 58.5 (12.67)
- Mean Severity Scores by Week (100 mg group, Baseline, ITT, mild=1, moderate=2, severe=3): 2.21 (0.330)
- Composite Scores by Week (100 mg group, Baseline, ITT, frequency x severity): 140.35
